Results on 2 compounds are retold here after US5559158A, “Pharmaceutical composition” (Abbott Laboratories, priority 1994, dated 1996).

By bioavailability is commonly meant the share of a dose that reaches the circulation, judged against a reference dose that is usually intravenous. High values mean much systemic uptake, low ones little systemic uptake.

Series [1] can be described thus: Oral bioavailability study in dogs. More on the design: species or system beagle dogs. The following applies: dog, in vivo, 5 mg/kg, summary statement, dose not stated. As to the method: Each dog received a single solid dosage form corresponding to a 5 mg/kg dose of the drug.
In series [2] the test system is HIV-1 protease. Description: Inhibition of HIV-1 protease. Format: biochemical. The following applies: in words.
Series [3] has as its system HIV-2 protease. As to the kind of experiment: Inhibition of HIV-2 protease. It is filed as biochemical. The following applies: in words.
Where [4] appears, read: listed as compound of formula II.

SMILES strings stand for the structures. A value given as a limit tells only on which side of the number the result lay.

For `CC(C)c1nc(CN(C)C(=O)NC(C(=O)N[C@@H](Cc2ccccc2)C[C@H](O)[C@H](Cc2ccccc2)NC(=O)OCc2cncs2)C(C)C)cs1` (stereo partly drawn) [Compound III, (2S,3S,5S)-5-(N-(N-((N-Methyl-N-((2-isopropyl-4-thiazolyl)methyl)-amino)carbonyl)valinyl)amino)-2-(N((5-thiazolyl)methoxycarbonyl)amino)-1,6-diphenyl-3-hydroxyhexane], the bioavailability in series [1] is less than 2%. In series [2], the “inhibition of HIV-1 protease” value is given as “inhibitors”. In addition, the “inhibition of HIV-2 protease” value in series [3] is listed as “inhibitors”.

In the case of `CC(C)c1nc(CN(C)C(=O)NC(C(=O)NC(Cc2ccccc2)CC(O)C(Cc2ccccc2)NC(=O)OCc2cncs2)C(C)C)cs1` (stereo not shown) [Compound II], the “inhibition of HIV-1 protease” value was “inhibitors” in series [2] and “especially effective” in series [2] (setting [4]). For the same compound, the figures for the “inhibition of HIV-2 protease” value in series [3] and in series [3] (setting [4]) were “inhibitors” and “especially effective”, respectively.
